{
  "source": "patent US20130183239A1",
  "about": "“ISOTOPIC CARBON CHOLINE ANALOGS” (IMPERIAL COLLEGE, priority 2010, published 2013)",
  "key": {"HCT116 tumors": {"system": "HCT116 tumors", "design": "AUC: unit not given beside the values", "protocol": "(§1) Dynamic ^11C-choline, ^11C-D4-choline and ^18F-D4-choline imaging scans were carried out on a dedicated small animal PET scanner (Siemens Inveon PET module, Siemens Medical Solutions USA, Inc., Malvem, Pa., USA) following a bolus i.v. injection in tumor-bearing mice of either ˜3.7 MBq for ^18F studies, or ˜18.5 MBq for ^11C. Dynamic scans were acquired in list mode format over 60 min. The acquired data were then sorted into 0.5 mm sinogram bins and 19 time frames for image reconstruction (4×15 s, 4×60 s, and 11×300 s), which was done by filtered back projection. For input function analysis, data were sorted into 25 time frames for image reconstruction (8×5 s, 1×20 s, 4×40 s, 1×80 s, and 11×300 s). The Siemens Inveon Research Workplace software was used for visualization of radiotracer uptake in the tumor; 30 to 60 min cumulative images of the dynamic data were employed to define 3-dimensional (3D) regions of interest (ROIs). Arterial input function was estimated as follows: a single voxel 3D ROI was manually drawn in the center of the heart cavity using 2 to 5 min cumulative images. Care was taken to minimize ROI overlap with the myocardium. The count densities were averaged for all ROIs at each time point to obtain a time versus radioactivity curve (TAC). Tumor TACs were normalized to injected dose, measured by a VDC-304 dose calibrator (Veenstra Instruments, Joure, The Netherlands), and expressed as percentage injected dose per mL tissue. The area under the TAC, calculated as the integral of % ID/mL from 0-60 min, and the normalized uptake of radiotracer at 60 min (% ID/mL60) were also used for comparisons.\n(§2) A 2-tissue irreversible compartmental model was employed to fit the TACs, as has been previously established for ^11C-choline (Kenny L M, Contractor K B, Hinz R, et al. Reproducibility of [11C]choline-positron emission tomography and effect of trastuzumab. Clin Cancer Res. Aug. 15 2010; 16(16):4236-4245; and Sutinen E, Nurmi M, Roivainen A, et al. Kinetics of [(11)C]choline uptake in prostate cancer: a PET study. Eur J Nucl Med Mol. Imaging. March 2004; 31(3):317-324). An estimate of the whole blood TAC (wbTAC(t)) was derived from the PET image itself, as described above. […] Therefore it was fitted with a sum of 3 exponentials from the peak on and the fitted function was used as input function in the kinetic modeling (after metabolite correction, see below). […] The pf values were fitted to a sum of two exponentials with the constraint pf(t=0)=1 to obtain the function pf(t). The parent whole blood TAC wbTACPAR(t) was then computed by multiplying wbTAC(t) and pf(t) and used as input function to estimate the parameters K1 (mL/cm^3/min), k2 (1/min), k3 (1/min) and Vb (unitless). The steady state net irreversible uptake rate constant Ki (mL/cm^3/min) was calculated from the estimated microparameters as K1k3/(k2+k3)."}, "[1]": {"system": "malignant melanoma A375 tumors", "design": "AUC: unit not given beside the values", "protocol": "as §1, §2"}, "[2]": {"conditions": "HCT116 tumors, two-tissue irreversible model, n=3"}, "[3]": {"conditions": "HCT116 tumors, 2-tissue irreversible model"}, "[4]": {"conditions": "A375 tumors, 2-tissue irreversible model"}},
  "data": [
    {"smiles": "[2H]C([2H])(O)C([2H])([2H])[N+](C)(C)C[18F]", "note": "[[^18F]D4-FCH, [^18F]fluoromethyl-[1,2-^2H4]-choline]", "values": [
      {"measurement": "tumor tracer kinetics between 30 and 60 min", "setting": "HCT116 tumors; HCT116 tumors, dynamic PET", "value": "Slow wash-out of activity"},
      {"measurement": "decrease in Ki compared to 11C-D4-choline", "setting": "HCT116 tumors; [2]", "value": 49.2, "unit": "%"},
      {"measurement": "decrease in k3 compared to 11C-D4-choline", "setting": "HCT116 tumors; [2]", "value": 75.2, "unit": "%"},
      {"measurement": "K1′", "setting": "HCT116 tumors; [3]", "value": "0.142 ± 0.027"},
      {"measurement": "Ki", "setting": "HCT116 tumors; [3]", "value": "0.008 ± 0.001", "unit": "mL/cm^3/min"},
      {"measurement": "k3", "setting": "HCT116 tumors; [3]", "value": "0.039 ± 0.003", "unit": "min⁻¹"},
      {"measurement": "AUC", "setting": "HCT116 tumors; mouse, in vivo", "value": "114.5 ± 7.0"},
      {"measurement": "NUV60", "setting": "HCT116 tumors; mouse, in vivo", "value": "1.81 ± 0.11", "unit": "% ID/mL"},
      {"measurement": "tumor radiotracer uptake by PET", "setting": "HCT116 tumors; mouse, in vivo", "value": "no higher"},
      {"measurement": "K1′", "setting": "[1]; [4]", "value": "0.111 ± 0.021"},
      {"measurement": "Ki", "setting": "[1]; [4]", "value": "0.006 ± 0.002", "unit": "mL/cm^3/min"},
      {"measurement": "k3", "setting": "[1]; [4]", "value": "0.030 ± 0.008", "unit": "min⁻¹"},
      {"measurement": "AUC", "setting": "[1]; mouse, in vivo", "value": "107.3 ± 7.7"},
      {"measurement": "NUV60", "setting": "[1]; mouse, in vivo", "value": "1.71 ± 0.14", "unit": "% ID/mL"}
    ]}
  ]
}
